In patent US7304174B2, “CaSR antagonist” (Japan Tobacco Inc., priority 2003, dated 2007):

How the values were obtained:
PTH release = details: OVX rat, cited from earlier work
CYP2D6 = target: T1, CYP2D6 (Homo sapiens, UniProt P10635); assay: Metabolic enzyme CYP2D6 inhibitory activity (inhibition measurement kit); format: in vitro ADME; details: enzyme activity free of test compound as 100%, >10 means over 10 μM
T1 construct: purchased BD Bioscience
Experimental: Using a metabolic enzyme CYP2D6 inhibition measurement kit (BD Bioscience) and following the manual of the kit, the inhibitory activity of the test compound was measured. With the enzyme activity free of the test compound as 100%, the concentration (IC50) showing 50% inhibition was determined. The results are shown in Table 63 and Table 64, wherein “>10” means over 10 μM.

human calcium receptor = target: T2, human calcium receptor (Homo sapiens, UniProt P41180); assay: Evaluation of antagonistic action on calcium receptor using reporter gene (luciferase); format: cell-based; details: transformed rat adrenal derived cells, 5 mM calcium chloride, culture 4 hrs, luciferase activity; read-out: Reporter gene assay (IC50, concentration showing 50% inhibitory rate)
T2 construct: expressed in transfected cells; host or cells: cell strain derived from rat adrenal, co-transformed with luciferase cDNA
T2 sequence (P41180 20-1078): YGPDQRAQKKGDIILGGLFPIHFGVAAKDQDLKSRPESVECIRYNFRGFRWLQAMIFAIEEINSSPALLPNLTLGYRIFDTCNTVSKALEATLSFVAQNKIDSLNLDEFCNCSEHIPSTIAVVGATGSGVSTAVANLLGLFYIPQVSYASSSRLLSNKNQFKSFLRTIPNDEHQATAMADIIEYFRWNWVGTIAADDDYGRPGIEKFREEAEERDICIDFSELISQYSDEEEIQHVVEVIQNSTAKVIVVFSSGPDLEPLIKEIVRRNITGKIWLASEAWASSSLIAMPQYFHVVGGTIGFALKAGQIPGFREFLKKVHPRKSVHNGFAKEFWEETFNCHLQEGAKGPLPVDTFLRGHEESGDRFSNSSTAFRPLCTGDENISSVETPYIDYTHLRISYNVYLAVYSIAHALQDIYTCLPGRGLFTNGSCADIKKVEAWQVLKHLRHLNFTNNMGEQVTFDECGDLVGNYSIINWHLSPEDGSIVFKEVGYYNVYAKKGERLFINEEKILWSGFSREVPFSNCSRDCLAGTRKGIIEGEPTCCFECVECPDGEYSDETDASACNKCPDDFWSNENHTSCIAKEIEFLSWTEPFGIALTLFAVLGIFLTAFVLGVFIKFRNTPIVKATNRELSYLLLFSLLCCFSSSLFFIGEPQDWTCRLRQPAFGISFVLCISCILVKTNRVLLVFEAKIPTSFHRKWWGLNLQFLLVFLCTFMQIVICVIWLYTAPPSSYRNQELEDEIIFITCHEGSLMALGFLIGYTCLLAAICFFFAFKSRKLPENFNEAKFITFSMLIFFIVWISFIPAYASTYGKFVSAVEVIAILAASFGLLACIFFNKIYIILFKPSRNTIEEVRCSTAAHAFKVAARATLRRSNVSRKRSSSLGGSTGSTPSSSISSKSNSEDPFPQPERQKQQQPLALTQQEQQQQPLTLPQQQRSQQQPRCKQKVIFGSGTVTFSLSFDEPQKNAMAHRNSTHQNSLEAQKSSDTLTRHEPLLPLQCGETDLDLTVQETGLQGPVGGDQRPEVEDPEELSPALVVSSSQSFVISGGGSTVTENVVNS
Summary of the method: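 Rat adrenal-derived cells transfected with luciferase and human calcium receptor cDNA, in F12 with 0.5% dialyzed horse serum and 0.25% dialyzed fetal bovine serum. Luciferase luminescence gave % inhibition vs control and blank; IC50 at 50% inhibition.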

PTH secretion = assay: Concomitant administration of test compound and estrogen: blood PTH with time; format: in vivo, ovariectomized rats
Experimental: The 13-week-old ovariectomized rats were divided into 4 groups of a control group (Group A), an estrogen administration group (Group B), a test compound administration group (Group C), and a test compound and estrogen concomitant administration group (Group D). One sham control group (E group) subjected to a sham surgery was also established. Estradiol was dissolved in 5% benzyl alcohol-corn oil and subcutaneously administered to an estrogen administration groups (Group B and Group D) at the dose of 10 μg/kg. 5% Benzyl alcohol-corn oil was subcutaneously administered to groups (Group A and Group C) free from administration of estrogen. The compound of Example 1-1 was suspended in 0.5% methyl cellulose solution and orally administered to groups (Group C and Group D) to be administered with the test compound at the dose of 3 mg/kg. As regards the groups (Group A and Group B) free from administration of the test compound, 0.5% methyl cellulose solution was orally administered.
In addition, blood was drawn with time for the measurement of blood PTH at day 16 of administration. The blood was drawn in each group from the tail vein immediately before oral administration and 0.25, 0.5, 1, 2 and 4 hr later, and serum was obtained. For serum PTH measurement, a commercially available ELISA kit (“rat intact PTH ELISA kit”, Immutopics) was used.

bone resorption = assay: Concomitant administration of test compound and estrogen: bone resorption marker blood ICTP; format: in vivo, ovariectomized rats; details: day 13, exclusive administration (Group B estradiol 10 μg/kg s.c.; Group C Example 1-1 3 mg/kg oral), mean ± S.D., n = 5
Experimental: The 13-week-old ovariectomized rats were divided into 4 groups of a control group (Group A), an estrogen administration group (Group B), a test compound administration group (Group C), and a test compound and estrogen concomitant administration group (Group D). One sham control group (E group) subjected to a sham surgery was also established. Estradiol was dissolved in 5% benzyl alcohol-corn oil and subcutaneously administered to an estrogen administration groups (Group B and Group D) at the dose of 10 μg/kg. 5% Benzyl alcohol-corn oil was subcutaneously administered to groups (Group A and Group C) free from administration of estrogen. The compound of Example 1-1 was suspended in 0.5% methyl cellulose solution and orally administered to groups (Group C and Group D) to be administered with the test compound at the dose of 3 mg/kg. As regards the groups (Group A and Group B) free from administration of the test compound, 0.5% methyl cellulose solution was orally administered. On day 13 from the start of the administration, the blood was drawn in each group from the tail vein, and serum was obtained. ICTP, which is a blood bone resorption marker, was measured using a commercially available ELISA kit (“RatLaps ELISA kit”, Nordic Bioscience Diagnostics).

T1 sequence (P10635 whole entry): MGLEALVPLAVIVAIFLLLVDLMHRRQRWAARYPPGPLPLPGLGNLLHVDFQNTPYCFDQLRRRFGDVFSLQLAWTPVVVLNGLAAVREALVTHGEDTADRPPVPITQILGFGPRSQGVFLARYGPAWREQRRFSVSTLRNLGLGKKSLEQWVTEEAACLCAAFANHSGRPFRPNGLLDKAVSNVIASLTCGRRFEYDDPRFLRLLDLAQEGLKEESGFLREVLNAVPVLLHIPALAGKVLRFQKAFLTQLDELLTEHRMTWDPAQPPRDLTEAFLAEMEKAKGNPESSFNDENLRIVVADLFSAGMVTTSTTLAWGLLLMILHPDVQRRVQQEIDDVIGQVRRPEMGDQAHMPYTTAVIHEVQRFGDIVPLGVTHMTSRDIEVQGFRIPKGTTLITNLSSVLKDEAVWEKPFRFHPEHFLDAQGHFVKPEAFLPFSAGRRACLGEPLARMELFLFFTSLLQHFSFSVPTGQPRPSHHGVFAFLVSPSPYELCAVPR

Molecule	IC50 (human calcium receptor)	IC50 (CYP2D6)	also measured
rat PTH (1-34): rat parathyroid hormone fragment (1-34) administered to OVX rat (AVSEIQLMHNLGKHLASVERMQWLRKKLQDVHNF; Parathyroid hormone; UniProt P04089 32-65, looked up, fragment)	–	–	Time until blood PTH returned to the original level (PTH release; 5 μg/kg): 2 h; Blood PTH concentration in 30 minutes (PTH release; rat PTH (1-34) 5 μg/kg, NPS-2143 100 μmol/kg): about 175 pg/ml
COc1cc(C(=O)O)ccc1-c1ccccc1[C@@H](C)OC[C@H](O)CNC(C)(C)Cc1ccc2ccccc2c1 [Example 1-27, 2′-[1-[(2R)-3-[[1-(naphthalen-2-yl)-2-methylpropan-2-yl]amino]-2-hydroxypropoxy]ethyl]-2-methoxybiphenyl-4-carboxylic acid]	0.014 µM	> 10 µM	–
C[C@@H](OC[C@H](O)CNC(C)(C)Cc1ccc2ccccc2c1)c1ccccc1-c1ccc(C(=O)O)c(Cl)n1 [Example 1-35, 2-chloro-6-[2-[1-[(2R)-3-[[1-(naphthalen-2-yl)-2-methylpropan-2-yl]amino]-2-hydroxypropoxy]ethyl]phenyl]pyridine-3-carboxylic acid]	0.01 µM	> 10 µM	–
CC(OC[C@H](O)CNC(C)(C)Cc1cnc2ccccc2c1)c1ccccc1Oc1ccc(C(=O)O)cc1 (stereo partly drawn) [Example 2-5, 4-[2-[1-[(2R)-3-[[1-(quinolin-3-yl)-2-methylpropan-2-yl]amino]-2-hydroxypropoxy]ethyl]phenoxy]benzoic acid]	0.057 µM	> 10 µM	–
COc1cc(-c2ccccc2[C@@H](C)OC[C@H](O)CNC(C)(C)Cc2ccc3ccccc3c2)ccc1C(=O)O [Example 1-26, 2′-[1-[(2R)-3-[[1-(naphthalen-2-yl)-2-methylpropan-2-yl]amino]-2-hydroxypropoxy]ethyl]-3-methoxybiphenyl-4-carboxylic acid]	0.014 µM	> 10 µM	–
C[C@]12CC[C@@H]3c4ccc(O)cc4CC[C@H]3[C@@H]1CC[C@@H]2O [Estradiol, reference compound]	–	–	Change of blood PTH with time (PTH secretion; Table 66, exclusive administration): increase in blood PTH was not observed; PTH (1–84) concentration 0.25 hr (PTH secretion; day 16, 0.25 hr, exclusive administration (Group B estradiol; Group C Example 1-1 3 mg/kg oral)): 53.65 ± 56.31 pg/mL; PTH (1–84) concentration 0.5 hr (PTH secretion; day 16, 0.5 hr, exclusive administration (Group B estradiol; Group C Example 1-1 3 mg/kg oral)): 56.55 ± 21.71 pg/mL; PTH (1–84) concentration 1 hr (PTH secretion; day 16, 1 hr, exclusive administration (Group B estradiol; Group C Example 1-1 3 mg/kg oral)): 35.70 ± 21.30 pg/mL; PTH (1–84) concentration 2 hr (PTH secretion; day 16, 2 hr, exclusive administration (Group B estradiol; Group C Example 1-1 3 mg/kg oral)): 41.94 ± 20.85 pg/mL; PTH (1–84) concentration 4 hr (PTH secretion; day 16, 4 hr, exclusive administration (Group B estradiol; Group C Example 1-1 3 mg/kg oral)): 46.84 ± 14.62 pg/mL; PTH (1–84) concentration 0 hr (PTH secretion; day 16, immediately before oral administration, exclusive administration (Group B estradiol 10 μg/kg s.c.; Group C Example 1-1 3 mg/kg oral)): 36.83 ± 14.45 pg/mL; Blood ICTP concentration (bone resorption): 20.93 ± 3.18 ng/mL
COc1cc(CC(C)(C)NC[C@@H](O)CO[C@H](C)c2ccccc2-c2ccc(C(=O)O)c(C)c2)ccc1C [Example 1-73, 2′-[1-[(2R)-3-[[1-(3-methoxy-4-methylphenyl)-2-methylpropan-2-yl]amino]-2-hydroxypropoxy]ethyl]-3-methylbiphenyl-4-carboxylic acid]	0.007 µM	> 10 µM	–
Cc1cc(C(=O)O)ccc1-c1ccccc1[C@@H](C)OC[C@H](O)CNC(C)(C)Cc1ccc(Cl)c(Cl)c1 [Example 1-57, 2′-[1-[(2R)-3-[[1-(3,4-dichlorophenyl)-2-methylpropan-2-yl]amino]-2-hydroxypropoxy]ethyl]-2-methylbiphenyl-4-carboxylic acid]	0.027 µM	> 10 µM	–

Continued, in another order:

IC50 (human calcium receptor)	IC50 (CYP2D6)	Molecule	also measured
0.002 µM	–	CC(C)c1cc(-c2ccccc2[C@@H](C)OC[C@H](O)CNC(C)(C)Cc2ccc3ccccc3c2)ccc1C(=O)O [Example 1-32, 2′-[1-[(2R)-3-[[1-(naphthalen-2-yl)-2-methylpropan-2-yl]amino]-2-hydroxypropoxy]ethyl]-3-isopropylbiphenyl-4-carboxylic acid]	IC50 (CYP2D6; human, CYP2D6 inhibition measurement kit (BD Bioscience)): 10 µM
0.002 µM	> 10 µM	CC(C)=Cc1cc(-c2ccccc2[C@@H](C)OC[C@H](O)CNC(C)(C)Cc2ccc(C)c(F)c2)ccc1C(=O)O [Example 1-48, 2′-[1-[(2R)-3-[[1-(3-fluoro-4-methylphenyl)-2-methylpropan-2-yl]amino]-2-hydroxypropoxy]ethyl]-3-(2-methyl-1-propenyl)biphenyl-4-carboxylic acid]	–
0.005 µM	> 10 µM	CCc1cc(-c2ccccc2[C@@H](C)OC[C@H](O)CNC(C)(C)Cc2ccc(C)c(F)c2)ccc1C(=O)O [Example 1-33, 3-ethyl-2′-[1-[(2R)-3-[[1-(3-fluoro-4-methylphenyl)-2-methylpropan-2-yl]amino]-2-hydroxypropoxy]ethyl]biphenyl-4-carboxylic acid]	–
0.005 µM	> 10 µM	Cc1ccc(CC(C)(C)NC[C@@H](O)CO[C@H](C)c2ccccc2-c2ccc(C(=O)O)c(C(C)C)c2)cc1F [Example 1-34, 2′-[1-[(2R)-3-[[1-(3-fluoro-4-methylphenyl)-2-methylpropan-2-yl]amino]-2-hydroxypropoxy]ethyl]-3-isopropylbiphenyl-4-carboxylic acid]	–
